This passage reports Activity, EC50 and IC50 results from ChEMBL document CHEMBL1156511, “Suppressor mutations in the transmembrane segments of P-glycoprotein promote maturation of processing mutants and disrupt a subset of drug-binding sites” (J Biol Chem, 2007).

Molecules are shown by their SMILES. Calls of active or inactive are those of the source. No cut-off for these calls is given here.

Common to all, as to assay type: cell-based
The target of series [1] is T1, ATP-dependent translocase ABCB1 (Homo sapiens, UniProt P08183, T199C). The series can be described thus: Activation of ATPase activity of human histidine-tagged Pgp TM3 T199C mutant expressed in HEK293 cells assessed as drug level causing maximal activation.
Series [2] has as its target ATP-dependent translocase ABCB1 (Homo sapiens, UniProt P08183, V206C). Description: Increase in ATPase activity of human histidine-tagged Pgp TM3 V206C mutant expressed in HEK293 cells at 2 mM relative to control. The following applies: hek293, 2000 µM.
Series [3] has as its target ATP-dependent translocase ABCB1 (Homo sapiens, UniProt P08183, F200C). Description: Increase in ATPase activity of human histidine-tagged Pgp TM3 F200C mutant expressed in HEK293 cells at 2 mM relative to control. The following applies: hek293, 2000 µM.
For series [4], the target named is ATP-dependent translocase ABCB1 (Homo sapiens, UniProt P08183, Q195C). Description: Increase in ATPase activity of human histidine-tagged Pgp TM3 Q195C mutant expressed in HEK293 cells at 2 mM relative to control. The following applies: hek293, 2000 µM.
Series [5] addresses ATP-dependent translocase ABCB1 (Homo sapiens, UniProt P08183, I205C). Description: Increase in ATPase activity of human histidine-tagged Pgp TM3 I205C mutant expressed in HEK293 cells at 2 mM relative to control. The following applies: hek293, 2000 µM.
Series [6] deals with ATP-dependent translocase ABCB1 (Homo sapiens, UniProt P08183, I190C). Description: Increase in ATPase activity of human histidine-tagged Pgp TM3 I190C mutant expressed in HEK293 cells at 2 mM relative to control. Conditions: hek293, 2000 µM.
Series [7] addresses T1, ATP-dependent translocase ABCB1. The series can be described thus: Activation of ATPase activity of human histidine-tagged Pgp TM3 T199C mutant expressed in HEK293 cells assessed as drug level causing half-maximal activation. The following applies: read-out: Activity.
The target in series [8] is ATP-dependent translocase ABCB1 (Homo sapiens, UniProt P08183, M197C). Description: Increase in ATPase activity of human histidine-tagged Pgp TM3 M197C mutant expressed in HEK293 cells at 2 mM relative to control. The following applies: hek293, 2000 µM.
The target in series [9] is ATP-dependent translocase ABCB1 (Homo sapiens, UniProt P08183, M192C). The series can be described thus: Increase in ATPase activity of human histidine-tagged Pgp TM3 M192C mutant expressed in HEK293 cells at 2 mM relative to control. The following applies: hek293, 2000 µM.
Series [10] addresses ATP-dependent translocase ABCB1 (Homo sapiens, UniProt P08183, G191C). Description: Increase in ATPase activity of human histidine-tagged Pgp TM3 G191C mutant expressed in HEK293 cells at 2 mM relative to control. The following applies: hek293, 2000 µM.
Series [11] addresses T2, ATP-dependent translocase ABCB1 (Homo sapiens, UniProt P08183, C137A/C431A/C717A/C956A/C1074A/C1125A/C1227A). Description: Increase in ATPase activity of human histidine-tagged Pgp Cys-less mutant expressed in HEK293 cells at 2 mM relative to control. The following applies: hek293, 2000 µM.
The target of series [12] is ATP-dependent translocase ABCB1 (Homo sapiens, UniProt P08183, F208C). Description: Increase in ATPase activity of human histidine-tagged Pgp TM3 F208C mutant expressed in HEK293 cells at 2 mM relative to control. The following applies: hek293, 2000 µM.
The target of series [13] is ATP-dependent translocase ABCB1 (Homo sapiens, UniProt P08183, T202C). The series can be described thus: Increase in ATPase activity of human histidine-tagged Pgp TM3 T202C mutant expressed in HEK293 cells at 2 mM relative to control. The following applies: hek293, 2000 µM.
Series [14] concerns the target T1, ATP-dependent translocase ABCB1. Description: Increase in ATPase activity of human histidine-tagged Pgp TM3 mutant T199C expressed in HEK293 cells at 2 mM relative to control. Conditions: hek293, 2000 µM.
Series [15] addresses ATP-dependent translocase ABCB1 (Homo sapiens, UniProt P08183, F193C). The series can be described thus: Increase in ATPase activity of human histidine-tagged Pgp TM3 F193C mutant expressed in HEK293 cells at 2 mM relative to control. Conditions: hek293, 2000 µM.
In series [16] the target is ATP-dependent translocase ABCB1 (Homo sapiens, UniProt P08183, F204C). The series can be described thus: Increase in ATPase activity of human histidine-tagged Pgp TM3 F204C mutant expressed in HEK293 cells at 2 mM relative to control. Conditions: hek293, 2000 µM.
The target in series [17] is ATP-dependent translocase ABCB1 (Homo sapiens, UniProt P08183, F194C). The series can be described thus: Increase in ATPase activity of human histidine-tagged Pgp TM3 F194C mutant expressed in HEK293 cells at 2 mM relative to control. The following applies: hek293, 2000 µM.
The target of series [18] is ATP-dependent translocase ABCB1 (Homo sapiens, UniProt P08183, G207C). The series can be described thus: Increase in ATPase activity of human histidine-tagged Pgp TM3 G207C mutant expressed in HEK293 cells at 2 mM relative to control. The following applies: hek293, 2000 µM.
Series [19] deals with ATP-dependent translocase ABCB1 (Homo sapiens, UniProt P08183, T209C). Description: Increase in ATPase activity of human histidine-tagged Pgp TM3 T209C mutant expressed in HEK293 cells at 2 mM relative to control. The following applies: hek293, 2000 µM.
Series [20] concerns the target ATP-dependent translocase ABCB1 (Homo sapiens, UniProt P08183, S196C). Description: Increase in ATPase activity of human histidine-tagged Pgp TM3 S196C mutant expressed in HEK293 cells at 2 mM relative to control. The following applies: hek293, 2000 µM.
The target of series [21] is ATP-dependent translocase ABCB1 (Homo sapiens, UniProt P08183, A198C). The series can be described thus: Increase in ATPase activity of human histidine-tagged Pgp TM3 A198C mutant expressed in HEK293 cells at 2 mM relative to control. Conditions: hek293, 2000 µM.
The target of series [22] is T2, ATP-dependent translocase ABCB1. Description: Activation of ATPase activity of human histidine-tagged Cys-less Pgp mutant expressed in HEK293 cells assessed as half maximal stimulation at 110 uM. The following applies: hek293, 110 µM.
For series [23], the target named is ATP-dependent translocase ABCB1 (Homo sapiens, UniProt P08183, F201C). Description: Increase in ATPase activity of human histidine-tagged Pgp TM3 F201C mutant expressed in HEK293 cells at 2 mM relative to control. Conditions: hek293, 2000 µM.
Series [24] concerns the target ATP-dependent translocase ABCB1 (Homo sapiens, UniProt P08183, G203C). The series can be described thus: Increase in ATPase activity of human histidine-tagged Pgp TM3 G203C mutant expressed in HEK293 cells at 2 mM relative to control. Conditions: hek293, 2000 µM.
Series [25] relates to HEK293. The series can be described thus: Inhibition of cross-linking of human Pgp TM1 L65R/TM6 L339C/TM7 F728 mutant expressed in HEK293 cells assessed as drug level causing 50% inhibition of cross linking by immunoblot. For orientation: In western blotting, separated proteins are transferred to a membrane and probed.
For series [26], the system named is HEK293. The series can be described thus: Inhibition of cross-linking of human Pgp TM6 L339C/TM7 F728C mutant expressed in HEK293 cells assessed as drug level causing 50% inhibition of cross linking by immunoblot.
Series [27] addresses ATP-dependent translocase ABCB1 (Homo sapiens, UniProt P08183, F343R/F728C/L339C). Description: Inhibition of cross-linking of human Pgp TM6 F343R/TM6 L339C/TM7 F728C mutant expressed in HEK293 cells assessed as drug level causing 50% inhibition of cross linking by immunoblot. The following applies: read-out: Activity.
Series [28] deals with ATP-dependent translocase ABCB1 (Homo sapiens, UniProt P08183, F728C/I306R/L339C). Description: Inhibition of cross-linking of human Pgp TM5 I306R/TM6 L339C/TM7 F728C mutant expressed in HEK293 cells assessed as drug level causing 50% inhibition of cross linking by immunoblot. Conditions: read-out: Activity.
Series [29] has as its target ATP-dependent translocase ABCB1 (Homo sapiens, UniProt P08183, F728C/L339C/T199R). Description: Inhibition of cross-linking of human Pgp TM3 T199R/TM6 L339C/TM7 F728C mutant expressed in HEK293 cells assessed as drug level causing 50% inhibition of cross linking by immunoblot. The following applies: read-out: Activity.
In series [30] the test system is HEK293. Description: Activation of ATPase activity of human Pgp TM7 Cys728 mutant expressed in HEK293 cells at 3 mM relative to control.

T1 sequence (P08183 whole entry T199C): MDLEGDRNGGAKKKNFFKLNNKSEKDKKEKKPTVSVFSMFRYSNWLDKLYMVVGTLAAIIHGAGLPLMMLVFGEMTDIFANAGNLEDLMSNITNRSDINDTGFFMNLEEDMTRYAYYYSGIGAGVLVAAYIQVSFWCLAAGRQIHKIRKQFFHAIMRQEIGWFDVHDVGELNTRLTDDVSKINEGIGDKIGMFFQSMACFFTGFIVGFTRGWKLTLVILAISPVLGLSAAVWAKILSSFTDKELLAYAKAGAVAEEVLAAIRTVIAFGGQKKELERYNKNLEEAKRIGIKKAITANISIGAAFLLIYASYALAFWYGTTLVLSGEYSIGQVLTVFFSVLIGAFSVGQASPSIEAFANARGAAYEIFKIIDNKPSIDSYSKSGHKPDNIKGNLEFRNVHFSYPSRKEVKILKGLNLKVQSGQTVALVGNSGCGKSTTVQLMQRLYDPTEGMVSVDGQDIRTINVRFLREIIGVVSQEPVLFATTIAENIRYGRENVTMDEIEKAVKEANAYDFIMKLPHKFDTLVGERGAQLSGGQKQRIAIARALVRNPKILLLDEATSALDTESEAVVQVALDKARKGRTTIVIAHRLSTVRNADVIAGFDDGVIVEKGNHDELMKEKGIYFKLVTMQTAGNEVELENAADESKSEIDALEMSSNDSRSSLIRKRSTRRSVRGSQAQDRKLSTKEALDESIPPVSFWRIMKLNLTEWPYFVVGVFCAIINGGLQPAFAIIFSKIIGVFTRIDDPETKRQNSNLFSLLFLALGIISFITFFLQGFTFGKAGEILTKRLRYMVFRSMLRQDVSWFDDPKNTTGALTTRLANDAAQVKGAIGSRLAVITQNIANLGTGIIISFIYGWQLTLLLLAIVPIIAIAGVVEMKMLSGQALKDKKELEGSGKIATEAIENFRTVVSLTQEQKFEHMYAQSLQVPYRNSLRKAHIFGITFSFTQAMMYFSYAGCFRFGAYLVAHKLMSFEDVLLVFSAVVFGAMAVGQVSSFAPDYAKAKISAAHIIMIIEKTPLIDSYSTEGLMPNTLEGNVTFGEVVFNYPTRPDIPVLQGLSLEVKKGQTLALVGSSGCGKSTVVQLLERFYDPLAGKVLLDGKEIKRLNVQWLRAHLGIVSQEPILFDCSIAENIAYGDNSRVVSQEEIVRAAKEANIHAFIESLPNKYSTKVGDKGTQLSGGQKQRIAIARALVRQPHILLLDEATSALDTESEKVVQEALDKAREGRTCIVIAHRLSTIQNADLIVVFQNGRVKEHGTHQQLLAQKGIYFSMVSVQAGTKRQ
T2 sequence (P08183 whole entry C137A/C431A/C717A/C956A/C1074A/C1125A/C1227A): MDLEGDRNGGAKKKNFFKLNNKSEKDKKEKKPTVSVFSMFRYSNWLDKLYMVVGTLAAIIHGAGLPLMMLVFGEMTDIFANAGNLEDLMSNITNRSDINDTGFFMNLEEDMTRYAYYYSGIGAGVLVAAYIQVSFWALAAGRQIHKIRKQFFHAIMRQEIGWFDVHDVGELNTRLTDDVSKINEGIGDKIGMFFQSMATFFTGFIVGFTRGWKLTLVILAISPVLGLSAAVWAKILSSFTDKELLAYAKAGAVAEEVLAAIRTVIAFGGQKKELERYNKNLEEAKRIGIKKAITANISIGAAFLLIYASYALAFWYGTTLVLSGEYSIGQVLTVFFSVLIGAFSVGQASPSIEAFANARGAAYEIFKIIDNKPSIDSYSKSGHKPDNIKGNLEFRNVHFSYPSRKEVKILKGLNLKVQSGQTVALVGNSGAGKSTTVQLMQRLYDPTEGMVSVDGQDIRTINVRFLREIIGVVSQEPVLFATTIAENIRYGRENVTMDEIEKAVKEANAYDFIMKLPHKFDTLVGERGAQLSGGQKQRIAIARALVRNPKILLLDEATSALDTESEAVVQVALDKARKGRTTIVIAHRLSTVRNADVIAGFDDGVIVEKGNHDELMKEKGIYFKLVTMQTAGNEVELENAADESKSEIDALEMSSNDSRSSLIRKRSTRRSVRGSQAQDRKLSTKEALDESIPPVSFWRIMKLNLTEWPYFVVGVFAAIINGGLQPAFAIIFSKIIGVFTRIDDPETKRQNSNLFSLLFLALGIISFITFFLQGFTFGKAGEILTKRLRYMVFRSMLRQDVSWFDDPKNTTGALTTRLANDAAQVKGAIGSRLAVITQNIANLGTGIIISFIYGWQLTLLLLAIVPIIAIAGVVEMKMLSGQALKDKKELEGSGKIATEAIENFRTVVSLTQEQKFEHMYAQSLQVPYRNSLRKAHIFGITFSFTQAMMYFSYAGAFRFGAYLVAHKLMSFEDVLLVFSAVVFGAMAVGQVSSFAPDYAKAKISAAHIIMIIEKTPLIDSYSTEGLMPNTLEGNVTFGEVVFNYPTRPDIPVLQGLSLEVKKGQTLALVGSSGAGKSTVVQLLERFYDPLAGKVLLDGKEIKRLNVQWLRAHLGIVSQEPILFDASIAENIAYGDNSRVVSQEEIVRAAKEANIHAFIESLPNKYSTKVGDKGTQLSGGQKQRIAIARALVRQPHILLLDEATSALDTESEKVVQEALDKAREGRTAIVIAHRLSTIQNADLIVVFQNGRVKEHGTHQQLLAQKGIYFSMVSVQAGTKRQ
Chain of ATP-dependent translocase ABCB1 (Homo sapiens, UniProt P08183, Q195C) (P08183 whole entry Q195C): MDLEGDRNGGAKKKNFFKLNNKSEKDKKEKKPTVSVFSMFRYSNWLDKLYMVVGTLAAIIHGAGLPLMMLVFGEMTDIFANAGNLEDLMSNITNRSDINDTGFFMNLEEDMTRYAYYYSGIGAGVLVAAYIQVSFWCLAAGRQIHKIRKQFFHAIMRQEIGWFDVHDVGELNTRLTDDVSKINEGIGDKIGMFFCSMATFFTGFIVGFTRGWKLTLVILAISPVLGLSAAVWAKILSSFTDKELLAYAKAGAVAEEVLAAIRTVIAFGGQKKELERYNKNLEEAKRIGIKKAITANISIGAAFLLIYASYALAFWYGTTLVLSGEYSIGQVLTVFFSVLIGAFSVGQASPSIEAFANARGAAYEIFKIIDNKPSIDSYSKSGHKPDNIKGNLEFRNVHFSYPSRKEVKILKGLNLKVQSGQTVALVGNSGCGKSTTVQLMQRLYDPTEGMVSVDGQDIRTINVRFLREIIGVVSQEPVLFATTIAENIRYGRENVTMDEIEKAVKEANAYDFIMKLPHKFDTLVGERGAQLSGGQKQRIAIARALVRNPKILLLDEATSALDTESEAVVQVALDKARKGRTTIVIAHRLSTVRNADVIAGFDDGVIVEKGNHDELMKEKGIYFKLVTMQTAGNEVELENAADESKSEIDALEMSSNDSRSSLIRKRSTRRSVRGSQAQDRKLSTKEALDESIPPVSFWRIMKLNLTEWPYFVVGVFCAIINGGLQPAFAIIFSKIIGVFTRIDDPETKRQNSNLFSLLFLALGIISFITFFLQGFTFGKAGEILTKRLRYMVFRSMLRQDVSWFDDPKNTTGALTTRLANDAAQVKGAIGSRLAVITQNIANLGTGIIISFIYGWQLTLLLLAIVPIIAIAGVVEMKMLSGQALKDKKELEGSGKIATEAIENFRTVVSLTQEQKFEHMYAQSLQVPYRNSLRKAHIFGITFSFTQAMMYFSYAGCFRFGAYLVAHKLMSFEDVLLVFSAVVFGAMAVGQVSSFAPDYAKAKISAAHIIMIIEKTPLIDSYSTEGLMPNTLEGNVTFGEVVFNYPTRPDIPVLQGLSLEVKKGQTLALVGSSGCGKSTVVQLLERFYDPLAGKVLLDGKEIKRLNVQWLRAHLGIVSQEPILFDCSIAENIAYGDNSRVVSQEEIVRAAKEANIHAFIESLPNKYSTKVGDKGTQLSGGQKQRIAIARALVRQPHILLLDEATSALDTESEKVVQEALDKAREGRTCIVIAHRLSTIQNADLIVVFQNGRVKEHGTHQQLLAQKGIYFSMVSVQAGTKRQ
Chain of ATP-dependent translocase ABCB1 (Homo sapiens, UniProt P08183, I205C) (P08183 whole entry I205C): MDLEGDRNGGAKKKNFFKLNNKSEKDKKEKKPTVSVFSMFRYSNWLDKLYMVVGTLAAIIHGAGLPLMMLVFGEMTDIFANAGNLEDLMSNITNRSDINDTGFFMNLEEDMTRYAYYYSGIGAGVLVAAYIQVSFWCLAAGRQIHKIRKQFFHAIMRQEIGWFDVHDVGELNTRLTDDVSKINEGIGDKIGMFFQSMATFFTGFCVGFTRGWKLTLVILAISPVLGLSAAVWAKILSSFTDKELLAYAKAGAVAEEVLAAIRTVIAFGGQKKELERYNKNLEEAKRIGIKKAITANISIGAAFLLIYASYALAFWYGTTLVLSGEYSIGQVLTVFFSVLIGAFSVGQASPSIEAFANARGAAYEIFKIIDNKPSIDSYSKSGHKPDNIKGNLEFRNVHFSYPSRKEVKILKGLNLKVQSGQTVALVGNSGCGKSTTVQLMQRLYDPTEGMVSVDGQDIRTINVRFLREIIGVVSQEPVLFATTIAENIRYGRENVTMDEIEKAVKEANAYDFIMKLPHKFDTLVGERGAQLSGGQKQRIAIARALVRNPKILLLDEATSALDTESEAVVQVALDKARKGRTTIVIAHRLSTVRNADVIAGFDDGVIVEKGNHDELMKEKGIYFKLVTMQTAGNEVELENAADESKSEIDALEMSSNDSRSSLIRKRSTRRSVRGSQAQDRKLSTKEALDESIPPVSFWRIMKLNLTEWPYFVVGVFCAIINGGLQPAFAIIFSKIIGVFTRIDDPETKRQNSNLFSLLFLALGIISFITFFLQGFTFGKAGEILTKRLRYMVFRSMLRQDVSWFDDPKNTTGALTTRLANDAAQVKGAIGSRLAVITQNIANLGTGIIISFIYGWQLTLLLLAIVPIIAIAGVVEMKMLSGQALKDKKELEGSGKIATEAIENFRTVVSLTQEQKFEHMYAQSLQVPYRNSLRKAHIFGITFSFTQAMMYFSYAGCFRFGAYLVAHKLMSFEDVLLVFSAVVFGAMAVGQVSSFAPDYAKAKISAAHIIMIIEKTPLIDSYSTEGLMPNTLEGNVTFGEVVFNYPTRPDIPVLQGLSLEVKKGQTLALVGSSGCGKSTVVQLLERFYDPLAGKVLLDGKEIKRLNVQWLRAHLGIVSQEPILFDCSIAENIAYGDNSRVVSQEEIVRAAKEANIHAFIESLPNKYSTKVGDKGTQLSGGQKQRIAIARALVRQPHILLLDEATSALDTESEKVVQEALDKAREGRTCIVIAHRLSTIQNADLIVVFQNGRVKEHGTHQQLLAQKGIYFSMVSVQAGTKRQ

With `CCN(CC)c1ccc2c(-c3ccc(S(=O)(=O)NCCSS(C)(=O)=O)cc3S(=O)(=O)O)c3ccc(=[N+](CC)CC)cc-3oc2c1.[Cl-]`, the Activity in series [1] was 2 mM; in series [2], less than 1.5; in series [3], less than 1.5; in series [4], less than 1.5; in series [5], less than 1.5; in [6], less than 1.5. Moreover, the Activity in series [8], in series [9], in [10], in series [11], in series [12] and in [13] was less than 1.5 throughout. Besides, the Activity in [14] is less than 6.7; in [15] it was less than 1.5; in series [16], less than 1.5; in series [17], less than 1.5; in series [18], less than 1.5; in series [19] it was less than 1.5. Moreover, the Activity was less than 1.5 in series [20]; less than 1.5 in [21]; 6.2 in series [22]; less than 1.5 in series [23]; less than 1.5 in [24]. Further, the EC50 in series [7] stood at 880 µM.
As for `CCN(CC)c1ccc2c(-c3ccccc3C(C)=O)c3ccc(=[N+](CC)CC)cc-3oc2c1`, the Activity in the series on HEK293 [25] worked out at 65 µM; in the series on HEK293 [26], 88 µM.
For the compound `CCN(CC)c1ccc2c(-c3ccccc3C(=O)O)c3ccc(=[N+](CC)CC)cc-3oc2c1`, the IC50 in series [27] came out at 320 µM; in series [28], 96 µM; in [29], 77 µM. This compound showed an Activity in series [4] of 6.4.
Consider `COc1ccc(CC[N+](C)(CCCC(C#N)(c2ccc(OC)c(OC)c2)C(C)C)CCSS(C)(=O)=O)cc1OC` (stereo not drawn), for which, in the series on HEK293 [30], the result was inactive.
Take `CC[C@]1(O)C[C@@H]2CN(CCc3c([nH]c4ccccc34)[C@@](C(=O)OC)(c3cc4c(cc3OC)N(C)[C@H]3[C@@](O)(C(=O)OC)[C@H](OC(C)=O)[C@]5(CC)C=CCN6CC[C@]43[C@@H]65)C2)C1`: the Activity was 40 µM in the series with HEK293 [25] and 0.7 µM in the series with HEK293 [26].
